Measured values taken from patent US20210163404A1, “NOVEL UREA COMPOUNDS AND BIOISOSTERES THEREOF AND THEIR USE FOR TREATING INFLAMMATION AND INFLAMMATION-RELATED PATHOLOGIES” (UNIVERSITÉ LAVAL, priority 2017, published 2021).
Several values for one entry are separate records, joined by “and”; a condition that tells them apart may be missing. Equal entries are not always repeated. Where two headings read alike, the source gives them in different places.

Experiments:
[1] = tested on: IL-6; assay: IL-6 expression in HaCaT cells stimulated with IL-17A and TNFα (ELISA); format: cell-based, human; conditions: for Expression of IL-6, HaCaT: 10 μM solutions, HaCaT stimulated with IL-17A and TNFα, mean of five experiments in duplicate; for inhibitory effect on IL-6 expression in HaCaT cells: 10 μM, stimulated with IL-17A and TNFα; for inhibitory effect on IL-6 expression in HaCaT cells / effect on the expression of IL-6 by HaCaT cells: in words; for effect on the expression of IL-6 by HaCaT cells: HaCaT cells treated with IL-17 and TNFα
Text: The effect of compounds 3a-b, 4a-e, 5a-e and 6a-e on the expression of IL-6 was subsequently assessed using the HaCaT spontaneously transformed aneuploid immortal keratinocyte cell line, stimulated by the addition of IL-17A and TNFα in the culture medium (Table 1). Curcumin and ibuprofen were used as known IL-6 expression inhibitors. DMSO was used for solubilizing the drugs. […] Indeed, the inhibitory effect of these molecules was at least equivalent to that of curcumin [27] and ibuprofen, both recognized as anti-inflammatory drugs. The inhibitory effect of the substituted phenyl cycloalkylureas in accordance with an embodiment of the present disclosure on proinflammatory cytokines was also found at the mRNA level. Indeed, the mRNAs of the cytokines IL-6 and TNF-α as well as the mRNA of the chemokine IL-8 were lowered in TNF-α/IL-17A-stimulated HaCaT cells. Similar results were obtained in THP-1 cells stimulated with LPS where treatments with CHEU and 4e diminished the mRNA levels of the cytokines IL-1B, IL-6 and TNF-α in addition to the mRNA levels of the chemokine IL-8. It is surmised that the anti-inflammatory mechanism of action of the compounds of the present disclosure is likely mediated, at least in part, by modulating the phosphorylation state of the MAP kinase p38. […] Addition of a compound in accordance with an embodiment of the present disclosure, prior to stimulation with the aforementioned cytokines, decreases the level of p-p38 at 30-60 minutes post-stimulation. This diminution in p-p38 levels destabilizes the mRNAs of pro-inflammatory cytokines, non-limiting examples of which include TNF-α and IL-6. Moreover, it is surmised that the effect of the compounds of the present disclosure on p-p38 is potentially mediated by the activation of the phosphatase named DUSP1.
HaCaT cells (1×10^5) were suspended in DMEM culture media (500 μL) and incubated for 24 h in 24-well microtiter plates at 37° C. in a moisture-saturated atmosphere containing 5% CO2. Compounds were solubilized in DMSO and diluted in fresh DMEM. The compound (500 μL) was then added to the cell medium to obtain a final concentration of […] and the cells incubated over a period of 1 hour. In the meantime, IL-17α (200 ng/mL) and TNFα (20 ng/mL) (PeproTech, Rocky Hill, N.J.) were added to the drug solution in DMEM. Following the initial incubation of the cells, the culture medium was aspirated from each well and the IL-17α+ TNFα+ compound solution was added to each well for incubation (6 hours). The culture media was then removed and transferred to a clean tube (1.5 mL) at −80° C. until the ELISA test was performed. The presence of IL-6 in the cell media was determined using an IL-6 human Duoset ELISA kit (Fisher Scientific, Ottawa, On.) according to the manufacturer's instructions. Standards and samples were prepared and assessed in duplicate. Two separate replicates were performed for each sample. The absorbance was measured at 450 nm and 540 nm using a TECAN infinite M1000 plate reader.

[2] = tested on: HT-29 colon adenocarcinoma cells; assay: Antiproliferative activity (NCI procedure, sulforhodamine B), HT-29; format: cell-based, human; conditions: 48 h; for GI50: Table 2; for IC50: Table 6, unit inferred, tested 781 nM to 100 μM
Method in brief: (§1)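 Cells seeded in DMEM, grown 24 h at 37 °C, then exposed 48 h to serial dilutions from 100 μM to 781 nM (DMSO <0.5%). TCA fixation, sulforhodamine B staining, absorbance at 530-568 nm; growth inhibition relative to plates fixed on treatment day. At least two experiments in triplicate.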

[3] = tested on: HaCaT keratinocyte cell line; assay: Antiproliferative activity (NCI procedure, sulforhodamine B), HaCaT; format: cell-based, human; conditions: 48 h; for GI50: Table 2; for IC50: Table 6, unit inferred, tested 781 nM to 100 μM
Method in brief: as §1

[4] = tested on: HDFn neonatal dermal fibroblast cell line; assay: Antiproliferative activity (NCI procedure, sulforhodamine B), HDFn; format: cell-based, human; conditions: 48 h; for GI50: Table 2; for IC50: Table 6, unit inferred, tested 781 nM to 100 μM
Method in brief: as §1

[5] = tested on: A549 adenocarcinoma alveolar epithelial cancer cells; assay: Antiproliferative activity (NCI procedure, sulforhodamine B), A549; format: cell-based, human; conditions: 48 h; for GI50: Table 2; for IC50: Table 6, unit inferred, tested 781 nM to 100 μM
Method in brief: as §1

[6] = tested on: HaCaT cells; assay: Cell cycle analysis by flow cytometry; format: cell-based, human; conditions: for Cell cycle progression G0-G1 / Cell cycle progression G2-M / Cell cycle progression S: 10 μM, 24 h; for effect on cell cycle progression: in words
Protocol: The effect of compounds 3a-b, 4e, 5b-c, 6a and 6e on cell cycle progression was subsequently assessed using a flow cytometer in accordance with established experimental protocols to evaluate any potential drug toxicity at specific phases of the cell cycle (Table 3).
HaCaT cells (2.5×10^5) were incubated with compounds 3a-b, 4e, 5b-c, 6a and 6e and curcumin (10 μM) over a period of 24 h. The cells were subsequently trypsinized, washed with PBS, resuspended in PBS (250 μL), fixed by the addition of ice-cold EtOH (750 μL) under agitation and stored at −20° C. until analysis. Prior to FACS analysis, cells were washed with PBS and resuspended in PBS (500 μL) containing 4′,6′-diamidino-2-phenylindole (DAPI) (2 μg/mL). The cell cycle was analyzed using an LSR II flow cytometer (BD Biosciences, Franklin Lakes, N.J.).

[7] = tested on: IL-6; assay: IL-6 expression in HaCaT cells stimulated with IL-17A and TNFα (ELISA); format: cell-based; conditions: Homo sapiens, read-out: Reduction IL-6 (%)
[8] = tested on: cancer cell lines; conditions: background, refs [4, 5]; in words; cited from earlier work

SMILES | Expression of IL-6, HaCaT [1] [pg/mL] | inhibitory effect on IL-6 expression in HaCaT cells [1] | GI50 ([2]; Homo sapiens, HT-29) [µM] | IC50 ([2]; Homo sapiens, HT-29) [µM] | GI50 ([3]; Homo sapiens, HaCaT) [µM] | IC50 ([3]; Homo sapiens, HaCaT) [µM] | GI50 ([4]; Homo sapiens, Fibroblast) [µM] | IC50 ([4]; Homo sapiens, Fibroblast) [µM] | GI50 ([5]; Homo sapiens, A549) [µM] | IC50 ([5]; Homo sapiens, A549) [µM] | Cell cycle progression G0-G1 [6] | Cell cycle progression G2-M [6] | Cell cycle progression S [6] | melting point | effect on cell cycle progression [6] | also measured
CC(C)(C)c1cccc(NC(=O)NCC2CCC2)c1 [Compound 47, 1-(3-(t-Butyl)phenyl)-3-(cyclobutylmethyl)urea] | 47.5 ± 3.3 | significant inhibitory effect | 43 | 43 | 39 | 39 | 21 | 21 | 37 | 37 | 46.1 | 30.4 | 23.5 | 126 to 127 °C | – | –
CCNC(=O)Nc1ccc(C(C)(C)C)cc1 [Compound 63, 1-(4-(t-Butyl)phenyl)-3-ethylurea] | 81.9 ± 10.8 | – | 75 | 75 | > 100 | ≥ 100 | 60 | 60 | 69 | 69 | – | – | – | 136 to 139 °C | – | Cell cycle progression G0-G1 ([6]; listed as 3a): 44; Cell cycle progression G2-M ([6]; listed as 3a): 31; Cell cycle progression S ([6]; listed as 3a): 25.1
C[C@@H]1C[C@H]2[C@@H]3CCC4=CC(=O)C=C[C@]4(C)[C@@]3(F)[C@@H](O)C[C@]2(C)[C@@]1(O)C(=O)CO [Dexamethasone] | – | – | – | – | – | – | – | – | – | – | – | – | – | – | – | inhibition at 1 µM ([7]; Table 6, HaCaT stimulated with IL-17A and TNFα): 45.3%; inhibition at 1 µM ([7]; Table 8, HaCaT stimulated with IL-17A and TNFα): 54.5%
CC(C)(C)c1ccc(NC(=O)NC2CCCC2)cc1 [Compound 31, 1-(4-(t-Butyl)phenyl)-3-cyclopentylurea] | 127.5 ± 17.3 | – | > 100 | ≥ 100 | > 100 | ≥ 100 | > 100 | ≥ 100 | 83 | 83 | 48 | 25.8 | 25.1 | 218 to 223 °C and 219 to 221 °C | did not affect the cell cycle progression | –
O=C(Nc1ccc(C2CCCCC2)cc1)NC1CCCC1 [Compound 58, 1-(4-Cyclohexylphenyl)-3-cyclopentylurea] | 50.3 ± 4.7 | significant inhibitory effect | 13 | 13 | 82 | 82 | 56 | 56 | 11 | 11 | 50.1 | 25.2 | 24.7 | 197 to 199 °C | did not affect the cell cycle progression | –
O=C(NCC1CCC1)Nc1ccc(I)cc1 [Compound 23, 1-(Cyclobutylmethyl)-3-(4-iodophenyl)urea] | 33.9 ± 4.3 | significant inhibitory effect | 29 | 29 | 62 | 62 | 74 | 74 | 27 | 27 | 45 | 29.4 | 25.6 | 159 to 160 °C | – | –
O=C(NCCCl)Nc1ccc(C2CCCCC2)cc1 [cHCEU, 1-(2-chloroethyl)-3-(p-cyclohexylphenyl)urea, reference compound] | 46.8 ± 8.5 | – | 15 | – | 27 | – | 11 | – | 12 | – | 56.5 | 19.1 | 24.4 | – | – | effect on the expression of IL-6 by HaCaT cells [1]: significant decrease; antiproliferative activity on numerous cancer cell lines [8]: potent antiproliferative activity
CC(C)(C)c1ccc(NC(=O)NCCCl)cc1 [tBCEU, reference compound] | 130.6 ± 15.6 | – | – | – | – | – | – | – | – | – | 57.3 | 15.6 | 26.8 | – | arresting the cell cycle progression in the G2-M phase | effect on the expression of IL-6 by HaCaT cells [1]: significant decrease; GI50 [2]: 6.5 µM; GI50 [3]: 12 µM; GI50 [4]: 11 µM; GI50 [5]: 6.9 µM; antiproliferative activity on numerous cancer cell lines [8]: potent antiproliferative activity
